Source: patent US6103709A (priority 1998, dated 2000)
Entries after “also recorded” stand apart in the source; their conditions may differ.

Key:
[1] = system: chloride channels in ROS 17/2.8 cells; conditions: 1 nM HL in the bath; 1α,25(OH)2 D3 5 nM or less
Description: In each case, at least a 3-min period was allowed after the addition of the analog to the bath for currents to reach a stable amplitude value. […] Anion currents were isolated from inward Ba^2+ currents after blockade of Ca^2+ channels with 100 μM Cd^2+.

[2] = system: MAP-kinase p42^mapk in NB4 cells; test: MAP-kinase activation (p42mapk phosphorylation) in NB4 cells; type: cell-based, human
Description: In order to determine whether MAP-kinase phosphorylation is specific and is altered by 1α,25(OH)2 D3, the time-dependent effects of 1α,25(OH)2 D3 on p42^mapk phosphorylation was examined using human acute promyelocytic leukemia cells (NB4). In this study, the NB4 cells, cultured in 10% charcoal-stripped fetal calf serum (FCS) medium, were treated with 1α,25(OH)2 D3 at 10^-8 M for various time periods. Cells were then extracted and the phosphorylated MAP-kinase was immunoprecipitated with anti-phosphotyrosine antibody and further analyzed by Western blot using the antibodies against p42^mapk.
The lysate was further processed for anti-phosphotyrosine immunoprecipitation. […] After transferring the proteins to the PVDF membrane, the membrane was further incubated with primary anti-p42^mapk antibodies that were (+) or were not (-) pre-exposed to MAP-kinase peptide.
This example describes assays used for measurement of MAP-kinase activity in NB4 cells.
Cell culture of NB4 cells
The cell line is characterized by a translocation involving chromosomes 15 and 17, which is typical of the classical form of APL-M3 in the French-American-British [FAB] classification. NB4 cells were cultured in DMEM/F12 medium with 10% FCS at 5% CO2 balanced air and were routinely passaged as suspension cultures and only passages 8 to 20 were used for each assay.
Immunoprecipitation of Tyrosine-Phosphorylated Proteins
NB4 cells were cultured in 60-mm diameter dishes and treated with 1,25(OH)2 D3 or analogs in 4 ml of DMEM/F12 containing 10% charcoal-stripped FCS.
Insoluble material was removed in a microcentrifuge at 14,000 rpm for 10 min. Protein concentration was determined with a protein assay kit (Bio-Rad Lab, Hercules, Calif.). For immunoprecipitation, the supernatant was incubated with bead-conjugated monoclonal anti-phosphotyrosine antibody overnight at 4° C. The immunoprecipitates containing the tyrosine-phosphorylated proteins were washed four times with freshly-prepared RIPA buffer and further eluted with 2× Laemmli gel buffer.
At this point, the samples were either stored at -20° C. for further use or processed via Western blots. Equal loading of MAP-kinase protein was determined by running the Western blots using polyclonal anti-p42^mapk antibody. For this purpose, samples were aliquoted from each cell extract before immunoprecipitation.
SDS Gel Electrophoresis and Western blot
The membrane was further immunoblotted using a rabbit anti-p42^mapk polyclonal antibody overnight at 4° C. followed by incubation with secondary horseradish peroxidase-conjugated mouse anti-rabbit antibody for 1 hr at 25° C. The phosphorylated MAP-kinase bands were then visualized by enhanced chemiluminescence (ECL). A Ultrascan LX Laser Densitometer (LKB, Bromma, Sweden) scanned the density of the immuno-phosphoprotein bands. The results were normalized by protein loading and further plotted as percent of control of the band density.

VDRmem = test: Binding to membrane receptor VDRmem; conditions: relative to 1α,25(OH)2 D3

Row | Compound | antagonism of 1α,25(OH)2 D3-stimulated chloride channel opening [1] | antagonism of 1α,25(OH)2 D3-mediated MAP-kinase activation ([2]; HL 10^-9 M with 1α,25(OH)2 D3 at 1, 10 or 100×10^-10 M, 5 min) | stimulation of MAP-kinase by analog alone ([2]; HL alone) | activation of MAP-kinase versus 1α,25(OH)2 D3 ([2]; 1 minute) | activation of MAP-kinase versus 1α,25(OH)2 D3 ([2]; 5 minute) | binding to VDRmem receptor (VDRmem) [%]
1 | C=C1/C(=C\C=C2/CCC[C@]3(C)[C@@H]([C@H](C)CCCC(C)(C)O)CC[C@@H]23)C[C@@H](O)C[C@H]1O [HL] | capable of antagonizing rapid responses; also recorded: inhibit the ability of 1α,25(OH)2 D3 to increase outward currents | antagonist of activation of MAP-kinases; also recorded: capable of antagonizing rapid responses; also recorded: able to block 1α,25(OH)2 D3 | no stimulation of MAP-kinase |  |  | 
2 | C[C@H](CCCC(C)(C)O)[C@H]1CC[C@H]2C3=CC=C4C[C@@H](O)C[C@H](O)[C@@]4(C)[C@@H]3CC[C@]12C [JN] |  |  |  | more than 1α,25(OH)2 D3 | only slightly less active | 105
